Measurements from patent US12723063B2, “GIPR-agonist compounds” (Eli Lilly and Company, priority 2019, dated 2026).

Test system: insulin secretion
Experiment: In vivo effect on insulin secretion (ivGTT) in male Wistar rats
Set-up: species or system Wistar rat
Experimental: Male Wistar rats with femoral artery and femoral vein canulas (Envigo, Indianapolis, IN) (280-320 grams) are single-housed in polycarbonate cages with filter tops. Rats maintained on a 12:12 h light-dark cycle (lights on at 6:00 A.M.) at 21° C. and receive food and deionized water ad libitum. Rats are randomized by body weight and dosed 1.5 mL/kg subcutaneously (s.c.) at doses of 0.3, 1.0, 3, 10, 30, and 100 nmol/kg 16 hours prior to glucose administration then fasted. Animals are weighed and anesthetized with sodium pentobarbital dosed intraperitoneally (i.p.) (65 mg/kg, 30 mg/mL). At time 0, a blood sample is collected into EDTA tubes after which glucose is administered intravenously (i.v.) ([…], 5 mL/kg). Blood samples are collected for glucose and insulin levels at 2, 4, 6, 10, 20 and 30 min post-intravenous administration of glucose. Plasma glucose levels are determined using a clinical chemistry analyzer. Plasma insulin is determined using an electrochemiluminescence assay (Meso Scale, Gaithersburg, MD). […] Results are presented (SEM)(N).

SMILES: CC[C@H](C)[C@H](NC(=O)[C@H](CCCCN)NC(=O)[C@H](CC(=O)O)NC(=O)[C@H](CC(C)C)NC(=O)[C@](C)(CC(C)C)NC(=O)[C@@H](NC(=O)[C@H](CO)NC(=O)[C@H](Cc1ccc(O)cc1)NC(=O)[C@H](CC(=O)O)NC(=O)[C@H](CO)NC(=O)[C@@H](NC(=O)[C@H](Cc1ccccc1)NC(=O)[C@@H](NC(=O)CNC(=O)[C@H](CCC(=O)O)NC(=O)C(C)(C)NC(=O)[C@@H](N)Cc1ccc(O)cc1)[C@@H](C)O)[C@@H](C)CC)[C@@H](C)CC)C(=O)N[C@@H](Cc1c[nH]cn1)C(=O)N[C@@H](CCC(N)=O)C(=O)NC(C)(C)C(=O)N[C@@H](CC(=O)O)C(=O)N[C@@H](Cc1ccccc1)C(=O)N[C@H](C(=O)N[C@@H](CCC(=O)O)C(=O)N[C@@H](Cc1ccc(O)cc1)C(=O)N[C@@H](CCCCNC(=O)COCCOCCNC(=O)COCCOCCNC(=O)CC[C@H](NC(=O)CCCCCCCCCCCCCCCCCCC(=O)O)C(=O)O)C(=O)N[C@@H](CC(C)C)C(=O)N[C@@H](CCC(=O)O)C(=O)NCC(=O)NCC(=O)N1CCC[C@H]1C(=O)N[C@@H](CO)C(=O)N[C@@H](CO)C(=O)NCC(=O)N[C@@H](C)C(=O)N1CCC[C@H]1C(=O)N1CCC[C@H]1C(=O)N1CCC[C@H]1C(=O)N[C@@H](CO)C(N)=O)C(C)C [Example 5]
- insulin secretion during intravenous glucose tolerance test (0.3 nmol/kg s.c. 16 hours prior to glucose): 36.2
- insulin secretion during intravenous glucose tolerance test (1.0 nmol/kg s.c. 16 hours prior to glucose): 45.3
- insulin secretion during intravenous glucose tolerance test (3.0 nmol/kg s.c. 16 hours prior to glucose): 80.6
- insulin secretion during intravenous glucose tolerance test (10 nmol/kg s.c. 16 hours prior to glucose): 122.0
- insulin secretion during intravenous glucose tolerance test (30 nmol/kg s.c. 16 hours prior to glucose): 144
- insulin secretion during intravenous glucose tolerance test (100 nmol/kg s.c. 16 hours prior to glucose): 212.7
- Insulin secretion (ivGTT) ED50 (s.c., n = 1): 18.4 (n = 1) nmol/kg
